In patent publication US7018989B2, “Chemical compounds” (University College Cardiff Consultants, LTD, priority 1995, dated 2006):
Structures can show the parent of a compound that is named as a salt. Where two headings read alike, the source gives them in different places.

Experiments:
HIV-1 = assay: microbe, parasite or virus in culture; conditions: read-out: HIV1 CEM: EC50 for inhibition of HIV-1 in CEM cells
Protocol: (§1) Cells were infected with HIV-1 as previously described [Balzarini et al. AIDS (1991), 5, 21–28]. Briefly, 5×10^5 cells per milliliter were infected with HIV-1 or HIV-2 at 100 CCID50 (50% cell culture infective dose) per milliliter of cell suspension. Then 100 μL of the infected cell suspension was transferred to microtiter plate wells and mixed with 100 μL of the appropriate dilutions of the test compounds. After 4 days giant cell formation was recorded microscopically in the HIV-infected cell cultures [CEM], and after 5 days the number of viable cells was determined by trypan blue staining of the HIV-infected cell cultures [MT4].
(§2) The data columns are, in order: • HIV1 MT4: EC50 in μM for inhibition of HIV-1 in MT4 cells. • HIV2 MT4: EC50 in μM for inhibition of HIV-2 in MT4 cells. • CC50 MT4: CC50 in μM for toxicity to MT-4 cells. • HIV1 CEM: EC50 in μM for inhibition of HIV-1 in CEM cells. • HIV2 CEM: EC50 in μM for inhibition of HIV-2 in CEM cells. • HIV2 CEM-TK-: EC50 in μM for inhibition of HIV-2 in CEM/TK^− cells. • CC50 CEM: CC50 in μM for toxicity to CEM cells. • EC50 MSV: EC50 in μM for inhibition of MSV • MCC MSV: Minimum cytotoxic concentration in MSV assay

HIV-2 [1] = assay: Inhibition of HIV-2 in CEM cells (giant cell formation); assay type: cell-based; conditions: read-out: HIV2 CEM: EC50 for inhibition of HIV-2 in CEM cells
Protocol: as §1, §2

HIV-2 [2] = assay: Inhibition of HIV-2 in CEM/TK- cells; assay type: cell-based
Protocol: as §1, §2

[3] = Table 6, mean of two or more repeat experiments
[4] = Table 6, mean of two or more repeat experiments, read-out: HIV2 CEM-TK-: EC50 for inhibition of HIV-2 in CEM/TK^− cells
[5] = CEM/TK- cells, HIV-2, read-out: HIV2 CEM-TK-: EC50 for inhibition of HIV-2 in CEM/TK- cells

| SMILES | EC50 (HIV-1; [3]) | EC50 (HIV-2 [1]; [3]) | EC50 (HIV-2 [2]; [4]) | also measured |
| --- | --- | --- | --- | --- |
| Cc1cn([C@H]2C=C[C@@H](CO)O2)c(=O)[nH]c1=O [Compound 268, reference compound] | 0.24 µM | 1.2 µM | > 100 µM |  |
| COC(=O)C(NP(=O)(OCC1C=CC(n2cc(C)c(=O)[nH]c2=O)O1)OCC(Cl)(Cl)Cl)C(C)C (stereo not drawn) [Compound 322] | 29 µM | 71 µM | 59 µM |  |
| COC(=O)C(CCSC)NP(=O)(OCC1C=CC(n2cc(C)c(=O)[nH]c2=O)O1)OCC(Cl)(Cl)Cl (stereo not drawn) [Compound 345] | 8 µM | 11 µM | 10 µM |  |
| CCCNP(=O)(OCC1C=CC(n2cc(C)c(=O)[nH]c2=O)O1)OCC(Cl)(Cl)Cl (stereo not drawn) [Compound 401] | > 210 µM | > 210 µM | > 210 µM |  |
| CCCCNP(=O)(OCC1C=CC(n2cc(C)c(=O)[nH]c2=O)O1)OCC(Cl)(Cl)Cl (stereo not drawn) [Compound 402] | 118 µM | > 204 µM | 161 µM |  |
| CCNP(=O)(OCC1C=CC(n2cc(C)c(=O)[nH]c2=O)O1)OCC(Cl)(Cl)Cl (stereo not drawn) [Compound 403] | > 216 µM | > 216 µM | > 218 µM |  |
| CCCOP(=O)(OCC1C=CC(n2cc(C)c(=O)[nH]c2=O)O1)OCC(Cl)(Cl)Cl (stereo not drawn) [Compound 404] | > 209 µM | > 209 µM | > 209 µM |  |
| Cc1cn(C2C=CC(COP(=O)(O)OCC(Cl)(Cl)Cl)O2)c(=O)[nH]c1=O (stereo not drawn) [Compound 407] |  | 0.5 µM | 86 µM |  |
| O=c1ccn([C@H]2C=C[C@@H](CO)O2)c(=O)[nH]1 [Compound 446, reference compound] | > 95 µM | > 95 µM | > 95 µM |  |
| Cc1cn(C2C=CC(CNP(=O)(OC(C)C)OC(C)C)O2)c(=O)[nH]c1=O (stereo not drawn) [Compound 479] | > 258 µM | > 258 µM | > 258 µM |  |
| CCCCNP(=O)(OCC1C=CC(n2cc(C)c(=O)[nH]c2=O)O1)OCC(F)(F)F (stereo not drawn) [Compound 504] | 73 µM | 116 µM | ≥ 226 µM |  |
| COC(=O)C(C)NP(=O)(OCC1C=CC(n2ccc(=O)[nH]c2=O)O1)Oc1cccc(C(F)(F)F)c1 (stereo not drawn) [Compound 547] | > 3520 µM | > 7 µM | > 35 µM |  |
| CCOP(=O)(OCC)OCC1C=CC(n2ccc(=O)[nH]c2=O)O1 (stereo not drawn) [Compound 551] | > 58 µM | > 58 µM | > 58 µM |  |
| COC(=O)C(C)NP(=O)(OCC1C=CC(n2ccc(=O)[nH]c2=O)O1)Oc1ccccc1 (stereo not drawn) [Compound 558] | > 44 µM | > 44 µM | > 44 µM |  |
| O=c1ccn(C2C=CC(COP(=O)(OCC(Cl)(Cl)Cl)OCC(Cl)(Cl)Cl)O2)c(=O)[nH]1 (stereo not drawn) [Compound 562] | > 36 µM | > 36 µM | > 36 µM |  |
| CCCNP(=O)(OCC)OCC1C=CC(n2cc(C)c(=O)[nH]c2=O)O1 (stereo not drawn) [Compound 563] | > 268 µM | > 268 µM | > 268 µM |  |
| CC[C@H](C)[C@H](NP(=O)(OCC1C=CC(n2cc(C)c(=O)[nH]c2=O)O1)Oc1ccccc1)C(=O)OC (stereo partly drawn) [Compound 1186, 2′,3′-dideoxy-2′,3′-didehydrothymidino 5′-(phenylmethoxyisoleucinyl phosphate)] | 5 µM |  |  |  |
| Cc1cn([C@H]2C=C[C@@H](COP(=O)(O)NC(Cc3ccccc3)C(=O)O)O2)c(=O)[nH]c1=O (stereo partly drawn) [Compound 1187, 2′,3′-dideoxy-2′,3′-didehydrothymidine 5′-(phenylalaninyl phosphate)] | 3.5 µM |  |  |  |
| Cc1cn(C2C=CC(COP(=O)(NC(C)C(=O)OCC3CCCCC3)Oc3ccccc3)O2)c(=O)[nH]c1=O (stereo not drawn) [Compound 1189] | 0.04 µM |  |  |  |
| Cc1cn(C2C=CC(COP(=O)(O)NC(C(=O)O)C(C)C)O2)c(=O)[nH]c1=O (stereo not drawn) [Compound 1190, 2′,3′-dideoxy-2′,3′-didehydrothymidine 5′-(valinyl phosphate)] | 0.7 µM |  |  |  |
| Cc1cn(C2C=CC(COP(=O)(O)NC(CC(C)C)C(=O)O)O2)c(=O)[nH]c1=O (stereo not drawn) [Compound 1192, 2′,3′-dideoxy-2′,3′-didehydrothymidine 5′-(leucinyl phosphate)] | 1.4 µM |  |  |  |

| SMILES | EC50 (HIV-1; [3]) | EC50 (HIV-2 [1]; [3]) | EC50 (HIV-2 [2]; [4]) | also measured |
| --- | --- | --- | --- | --- |
| Cc1cn(C2C=CC(COP(=O)(Oc3ccccc3)N3CCCC3C(=O)O)O2)c(=O)[nH]c1=O (stereo not drawn) [Compound 1194, 2′,3′-dideoxy-2′,3′-didehydrothymidine 5′-(phenylprolinyl phosphate)] | 6 µM |  |  |  |
| COC(=O)CCC(NP(=O)(OCC1C=CC(n2cc(C)c(=O)[nH]c2=O)O1)Oc1ccccc1)C(=O)OC (stereo not drawn) [Compound 1196, 2′,3′-Dideoxy-2′,3′-didehydrothymidine-5′-(phenyldimethoxyglutaminyl phosphoramidate] | 1.2 µM |  |  |  |
| COC(=O)CCNP(=O)(OCC1C=CC(n2cc(C)c(=O)[nH]c2=O)O1)Oc1ccccc1 (stereo not drawn) [Compound 1197, 2′,3′-Dideoxy-2′,3′-didhydrothymidine-5′-(phenylmethoxy-B-alaninyl) phosphate] | > 250 µM |  |  |  |
| CCC(NP(=O)(OCC1C=CC(n2cc(C)c(=O)[nH]c2=O)O1)Oc1ccccc1)C(=O)OC (stereo not drawn) [Compound 1198, 2′,3′-Dideoxy-2′,3′-didehydrothymidine-5′-(phenylmethoxy-α-aminobutylryl) phosphate] | > 250 µM |  |  |  |
| COC(=O)CCCCCNP(=O)(OCC1C=CC(n2cc(C)c(=O)[nH]c2=O)O1)Oc1ccccc1 (stereo not drawn) [Compound 1199, 2′,3′-Dideoxy-2′,3′-didehydrothymidine-5′-(phenylmethoxy-6-aminocaproyl) phosphate] | > 250 µM |  |  |  |
| COC(=O)C(C)(C)NP(=O)(OCC1C=CC(n2cc(C)c(=O)[nH]c2=O)O1)Oc1ccccc1 (stereo not drawn) [Compound 1200, 2′,3′-Dideoxy-2′,3′-didehydrothymidine-5′-(phenylmethoxy-2-aminoisobutylryl) phosphate] | 0.12 µM |  |  |  |
| COC(=O)C[C@H](NP(=O)(OC[C@@H]1C=C[C@H](n2cc(C)c(=O)[nH]c2=O)O1)Oc1ccccc1)C(=O)OC (stereo partly drawn) [Compound 1214, 2′,3′-Dideoxy-2′,3′-didehydrothymidine-5′-(phenyldimethoxyasparaginyl) phosphoramidate] | 0.6 µM |  |  |  |
| COC(=O)C(Cc1c[nH]c2ccccc12)NP(=O)(OC[C@@H]1C=C[C@H](n2cc(C)c(=O)[nH]c2=O)O1)Oc1ccccc1 (stereo partly drawn) [Compound 1215, 2′,3′-Dideoxy-2′,3′-didehydrothymidine-5′-(phenylmethoxytryptophanyl) phosphoramidate] | 4 µM |  |  |  |
| Cc1cn(C2C=CC(COP(=O)(O)NCCC(=O)O)O2)c(=O)[nH]c1=O (stereo not drawn) [Compound 1216, 2′,3′-Dideoxy-2′,3′-didehydrothymidine-5′-(β-alaninyl) phosphate ammonium salt] | 0.7 µM |  |  |  |
| CCCCCC(=O)OP(=O)(O)OC[C@@H]1C=C[C@H](n2cc(C)c(=O)[nH]c2=O)O1 [Compound 1217, 2′,3′-Dideoxy-2′,3′-didehydrothymidine-5′-(caproyl) phosphate ammonium salt] | 1.4 µM |  |  |  |
| CCCCCOC(=O)C(C)NP(=O)(OCC1C=CC(n2cc(C)c(=O)[nH]c2=O)O1)Oc1ccccc1 (stereo not drawn) [Compound 1218] | < 0.08 µM |  |  |  |
| Cc1cn([C@H]2C=C[C@@H](COP(=O)(N[C@@H](C)C(=O)OCC(C)(C)C)Oc3ccccc3)O2)c(=O)[nH]c1=O (stereo partly drawn) [Compound 1219] | < 0.08 µM |  |  |  |
| Cc1cn(C2C=CC(COP(=O)(NC(C)C(=O)OCCc3ccccc3)Oc3ccccc3)O2)c(=O)[nH]c1=O (stereo not drawn) [Compound 1220] | 0.7 µM |  |  |  |
| Cc1cn([C@H]2C=C[C@@H](COP(=O)(O)OC(=O)CCCN)O2)c(=O)[nH]c1=O [Compound 1224, 2′,3′-Dideoxy-2′,3′-didehydrothymidine-5′(γ-aminobutylryl) phosphate ammonium salt] | 1 µM |  |  |  |
| Cc1cn(C2C=CC(COP(=O)(NC(C)C(=O)Oc3cccc4ccccc34)Oc3ccccc3)O2)c(=O)[nH]c1=O (stereo not drawn) [Compound 1226] | < 0.08 µM |  |  |  |
| Cc1cn(C2C=CC(COP(=O)(NC(C)C(=O)Oc3ccc4ccccc4c3)Oc3ccccc3)O2)c(=O)[nH]c1=O (stereo not drawn) [Compound 1227] | < 0.08 µM |  |  |  |
| [N-]=[N+]=NC1CC(n2ccc(=O)[nH]c2=O)OC1CO (stereo not drawn) [Cpd 569] |  |  |  | EC50 (HIV-1; CEM cells, HIV-1): > 400 µM; EC50 (HIV-2 [1]; CEM cells, HIV-2): > 400 µM; EC50 (HIV-2 [2]; [5]): > 400 µM |
| COC(=O)C(C)NP(=O)(OCC1OC(n2ccc(=O)[nH]c2=O)CC1N=[N+]=[N-])Oc1ccccc1 (stereo not drawn) [Cpd 571] |  |  |  | EC50 (HIV-1; CEM cells, HIV-1): > 202 µM; EC50 (HIV-2 [1]; CEM cells, HIV-2): > 202 µM; EC50 (HIV-2 [2]; [5]): 117 µM |
| CCCCCCNP(=O)(OCC1OC(n2cc(C)c(=O)[nH]c2=O)CC1N=[N+]=[N-])Oc1ccccc1 (stereo not drawn) [Cpd 657] |  |  |  | EC50 (HIV-1; CEM cells, HIV-1): > 40 µM; EC50 (HIV-2 [1]; CEM cells, HIV-2): > 40 µM; EC50 (HIV-2 [2]; [5]): > 18 µM |
| CCCCNP(=O)(OCC1OC(n2cc(C)c(=O)[nH]c2=O)CC1N=[N+]=[N-])Oc1ccccc1 (stereo not drawn) [Cpd 659] |  |  |  | EC50 (HIV-1; CEM cells, HIV-1): > 42 µM; EC50 (HIV-2 [1]; CEM cells, HIV-2): > 42 µM; EC50 (HIV-2 [2]; [5]): > 42 µM |
| COC(=O)C(C)NP(=O)(OCC1CCC(n2cc(C)c(=O)[nH]c2=O)O1)Oc1ccccc1 (stereo not drawn) [Cpd 1225] |  |  |  | EC50 (HIV-1; CEM cells, HIV-1): 1.2 µM |
